Results on 1 sequence are retold here after patent publication US8283324B2, “Immunomodulatory and anti-tumour peptides” (Centro de Ingenieria Genetica y Biotecnologia, priority 2006, dated 2012).

Test [1] is described as follows: competition ELISA for LPS-binding capacity. Set-up: species or system E. coli. To be noted: competition with biotinylated LALF32-51 at 0.2 μM; analogous peptides 10 μM to 0.01 μM; FIG. 1A. The method, then:
This assay consists on a competition ELISA system (Hardy E., et al (1994) Enhanced ELISA sensitivity using TCA for efficient coating of biologically active LPS or Lipid A to the solid phase. J. Immunol. Meth. Vol. 176:111-116). Polystyrene plates (Costar, USA) were coated with LPS from E. coli 0111:B4 (1 μg/ml) with 0.2% trichloroacetic acid (TCA). Plates were incubated overnight at 37° C. and further washed ten times with 1× phosphate-buffered saline (1×PBS) plus 0.1% tween-20 (washing solution). The binding of analogous peptides to the LPS fixed to the solid surface was evaluated by a competition ELISA with the biotinylated LALF32-51 peptide at 0.2 μM, obtaining a 90% of maximum LPS binding. To estimate the inhibition curves, different concentrations of the analogous peptides were used, from 10 μM to 0.01 μM and the curve of the LALF32-51 peptide as experimental control. The biotinylated LALF32-51 was incubated in the presence of the analogous peptides for 2 h at 37° C. and plates were washed 5 times after that time with washing solution. The biotinylated LALF32-51 bound to LPS was detected by incubating for 45 min at 37° C. with a streptavidin-peroxidase conjugate at a 1:2,000 dilution. Plates were washed 5 times with washing solution and the substrate solution was added (0.05 M citrate-phosphate buffer, pH 5.5, 1 tablet of 3,3′,5,5′-tetramethylbenzidine and 0.025% hydrogen peroxide). After 15 min incubation, the reaction was stopped by adding 2 M sulphuric acid. The absorbance was quantified at 450 nm in a plate reader (Sensident Scan). There is a correlation between optical density values and the LPS-binding capacity of analogous peptides. Analogous peptides with higher LPS-binding capacity show inhibition curves of lower O.D. compared to the inhibition curve of the LALF32-51 peptide.
Analogous peptides with lower LPS-binding capacity present inhibition curves with […], compared to the inhibition curve of the LALF32-51 peptide.
FIG. 1B represents the inhibition percentages of analogous peptides, at a fixed […] concentration, according to their capacity to displace the binding of the biotinylated LALF32-51 (0.2 μM) to LPS adsorbed to the solid surface. % de inhibición={1−(([O.D.]sample−[O.D.]min)/([O.D.]max−[O.D.]min))}×100 [O.D.] sample: Optical density value in the presence of a fixed concentration of analogous peptides; [O.D.] min: ELISA background; [O.D.] max: Optical density value without analogous peptides.
(In an ELISA, binding on a coated surface is turned into a signal by an enzyme label.)

The subject of test [2] is IFN-γ gene. Description: IFN-γ gene expression in human mononuclear cells (RT-PCR). The format is cell-based. To be noted: 40 μg/ml, 18 h; mRNA normalized against β-actin; FIG. 3A. How it is done: (§1) For this assay, human mononuclear cells were isolated by a Ficoll-Hypaque gradient from a leukocyte concentrate or “Buffy Coat” of a donor. Up to 5×10^6 were seeded in 24-well plates in RPMI 1640 medium supplemented with 10% calf fetal serum. Each peptide was further added at 40 μg/ml in a 0.1 ml volume of RPMI medium and cells were cultured for 18 h at 37° C. and 5% of CO2. Total RNA was extracted by using the TriReagent method. Afterwards, the expressions of IFN-α, IFN-γ and IL-12 genes were determined by the reverse transcription reaction and PCR amplification (RT-PCR kit, Perkin Elmer). Results are shown as relative amounts of messenger RNA normalized against expression levels of the β-actin housekeeping gene.

Test [3] concerns IL-12 gene. Description: IL-12 gene expression in human mononuclear cells (RT-PCR). The format is cell-based. Particulars: 40 μg/ml, 18 h; mRNA normalized against β-actin; FIG. 3A. How it is done:
as §1

Test [4] relates to TC-1 tumor cells. Description: anti-tumoral effect in the TC-1 tumor model. The format is in vivo. Particulars: 4 mg per kg s.c. The method, then: Eight-to-ten weeks-old C57BI/6 female mice were used for this assay (n=10 animals per experimental group). For tumor graft, TC-1 tumor cells derived from C57BI/6 malignant epithelial lung cells were used, being resuspended in phosphate-buffered saline (PBS). An amount of 50,000 cells in a 200 μl volume was inoculated to mice by subcutaneous route in the right hind limb. The first peptide administration was carried out by subcutaneous route in the right flank once tumor reached a 100 mm^3 volume, and the second was carried out after 10 days. In this assay, a 4 mg per kg of weight dose was evaluated (80 μg/mice). Animal survival and tumor mass were the parameters evaluated to measure the anti-tumoral effect peptides of interest, as shown in FIGS. 4A and 4B. […] The Log Rank method was used as statistical analysis for detecting significant differences between groups.

Test [5] concerns TC-1 tumor cells. Description: prophylactic schedule of treatment in the TC-1 tumor model. The test is classed as in vivo. Particulars: 4 mg/kg, two injections before inoculation of TC-1 cells. The method, then:
Eight-to-ten weeks-old C57BI/6 female mice were used for this assay (n=10 animals per experimental group). For tumor graft, TC-1 tumor cells, being resuspended in phosphate-buffered saline (PBS). Mice were first injected with the L-2 peptide (4 mg of peptide/kg of body weight). After 7 days, they received a second injection of the same dose; after 14 days of the first peptide injection, animals were inoculated with 50,000 cells in a 200 μl volume by subcutaneous route in the right hind limb. Parameters evaluated for measuring the anti-tumoral effect of the peptide included the time for tumor grafting (FIG. 6A) and the survival of animals (FIG. 6B).

In test [6] the test system is TC-1 cells. Description: growth of tumor cells, crystal violet, TC-1. The test is classed as cell-based, C57BI/6. To be noted: 9 μM to 300 μM, 72 h; FIG. 9. The method, then: (§2) For this assay, TC-1, H-125 (non-small human ling cancer cells) and L929) murine fibroblast) cells were seeded in 96-well culture plates (Costar) at a 2×10^4 cells/ml in Dulbecco's modified Eagle's medium (DMEM)(Gibco) supplemented with Calf Fetal Serum (Gibco). After 24 h, the peptides were added to the culture in a range of 9 μM to 300 μM. […] Plates were extensively washed with tap water and plates were read at 562 nm. A pro-apoptotic peptide with a marked anti-proliferative effect in vitro was employed as positive control (Perea, S., et al (2004) Antitumor Effect of a Novel Proapoptotic Peptide that Impairs the Phosphorylation by the Protein Kinase 2 Cancer Research 64: 7127-7129).

The subject of test [7] is H-125 (non-small human ling cancer cells). Description: growth of tumor cells, crystal violet, H-125. The test is classed as cell-based. Particulars: 9 μM to 300 μM, 72 h; FIG. 9. The method, then: as §2
Test [8] relates to L929 murine fibroblast cells. Description: growth of cells, crystal violet, L929. The test is classed as cell-based. To be noted: 9 μM to 300 μM, 72 h; FIG. 9. The method, then:
as §2

Where [9] appears, read: at 100 mm^3 tumor volume and after 10 days, FIG. 4.

In the case of “HARIKPTFRRLKWKYKGKFW [Peptide L-2, alanine-substituted analogue of LALF 32-51]”, the LPS-binding capacity entry in test [1] is reported as “lose the capacity to bind LPS”. The “expression of the IFN-γ gene” value in test [2] is given as “capable of inducing the expression”. In addition, the “expression of the IL-12 gene” value in test [3] is listed as “capable of inducing the expression”. The survival of mice entry in test [4] (setting [9]) was “prolonging survival of mice”. Further, the “tumor progression (tumor mass)” value in test [4] (setting [9]) is given as “effective for inhibiting tumor progression”. For the same sequence, in test [4] (Log Rank, *p<0.05), the “survival of animals compared to the LALF32-51 peptide” value is reported as “significantly increase the survival of animals”. Moreover, the “time for tumor grafting” value in test [5] (FIG. 6A) was “effective to prevent the development of the tumor”. Further, in test [5] (FIG. 6B), the survival of animals result was “increased the survival of the animals”. Also, the figures for the anti-proliferative effect entry in test [6], in test [7] and in test [8] were “dose-dependent anti-proliferative effect”, “dose-dependent anti-proliferative effect” and “no effect was detected”, respectively.
